Test results taken from ChEMBL document CHEMBL1128017, “Antineoplastic agents 323. Isolation and structure of phakellistatin 6 from a Chuuk archipelago marine sponge” (1994).
≈ marks a conversion by molar mass, not a printed value. Where a SMILES comes first, the peptide text is derived from it.

Columns and labels:
Format in all cases: functional
KM-20L2 = assay: Compound was tested for inhibition of KM20L2 human colon cancer cell line
SF-295 = assay: Compound was tested for inhibition of SF-295 human CNS cancer cell line
OVCAR-3 = assay: Compound was tested for inhibition of OVCAR-3 human ovarian cancer cell line
P388 = assay: Compound was tested for inhibition of murine P388 lymphocytic leukemia cancer cell line; details: Mus musculus, read-out: ED50 (the source's name)
SK-MEL-5 = assay: Compound was tested for inhibition of SK-MEL-5 human melanoma cancer cell line
NCI-H460 = assay: Compound was tested for inhibition of NCI-H460 human lung cancer cell line
A498 = assay: Compound was tested for inhibition of A498 human renal cancer cell line

GI50 (OVCAR-3): 0.025 µg/mL (≈ 0.0294 µM)
EC50 (P388): 0.185 µg/mL (≈ 0.217 µM)
GI50 (SK-MEL-5): 0.032 µg/mL (≈ 0.0376 µM)
GI50 (NCI-H460): 0.019 µg/mL (≈ 0.0223 µM)
SMILES: CC[C@H](C)[C@@H]1NC(=O)[C@@H]2CCCN2C(=O)[C@H](CC(C)C)NC(=O)[C@H](Cc2c[nH]c3ccccc23)NC(=O)[C@@H]2CCCN2C(=O)[C@H](Cc2ccccc2)NC(=O)[C@@H]2CCCN2C1=O (cyclo(FPWLPIP))
GI50 (KM-20L2): 0.021 µg/mL (≈ 0.0247 µM)
GI50 (SF-295): 0.041 µg/mL (≈ 0.0482 µM)
GI50 (A498): 0.078 µg/mL (≈ 0.0917 µM)
